Patent US20230242558A1, “NICOTINATE AND NICOTINAMIDE RIBOSIDE-BASED COMPOUNDS AND DERIVATIVES THEREOF” (New Frontier Bio, Inc., priority 2022, published 2023)

Experiments:
NHDF cells = test: General NAD Assay Procedure: total NAD level in NHDF cells (NAD/NADH Quantification Kit); assay type: cell-based; details: for increase in NAD levels compared with NMN: 6-hour time point, all concentrations
Procedure: NHDF cells (Lonza Cat #CC-2511) were plated in 12-well tissue culture plates at a density of 200,000 cells per well in 0.75 mL growth medium (Lonza FGM-2 cat #CC-3132 containing growth factors; cat #CC-4126). The plates were then incubated overnight at 37° C. in a humidified atmosphere of 5% CO2. The next day, dilutions of each test article were prepared in growth medium at 4× the desired final concentration. 250 μL of each dilution was added to respective wells to obtain desired concentration in each well. The cells were incubated for the desired length of time.
After the incubation, the cell monolayers in each well were washed with cold PBS. 400 μL of extraction buffer (provided in the NAD assay kit) was added and triturated 5-6 time. The cell lysate was collected in Eppendorf tubes and then flash frozen in a dry ice-methanol bath for 20 min then thawed at room temperature. The freeze-thaw cycle was repeated one additional time. The cell lysates were centrifuged and the supernatant collected stored at −80° C. until use.
An aliquot of extract was used to determine total protein concentration using Pierce BCA kit (Thermo Fisher Cat #23225). The total volumes of each sample were adjusted so that the total protein concentration was same in all samples.
50 μL of standards and each sample were added to appropriate wells of a 96-well plate, and the NAD assay according to the kit manufacturer's instructions (NAD/NADH Quantification Kit; Sigma-Aldrich; Catalog Number MAK037). The absorbance at 450 nm was measured using an Envision plate reader (Perkin Elmer) with default settings. The data was normalized against a blank. A standard curve was plotted and used to determine the total NAD level in each test sample.

HaCaT cells = test: NAD assay in HaCaT cells, total NAD level normalized to protein; assay type: cell-based; details: 4 hours incubation, concentration not given
Procedure: The biological activity of certain compounds disclosed herein was determined using the following method: • 1. Plate HaCaT cells in 12-well tissue culture plates at a density of 200,000 cells per well in 0.75 mL DMEM growth medium. Incubate overnight at 37° C. in a incubator at 5% CO2. • 2. Next day, prepare dilutions of each compound in growth medium at the desired final concentration. • 3. Incubate cells as above for 4 hours. • 4. After the incubation, wash cell monolayers in each well with 200 uL PBS and add 200 uL 0.25% Trypsin. Let cells lift for 15 minutes. • 5. Once cells are lifted, collect cells into sterile 1.5 mL Eppendorf tube containing 400 uL of DMEM w/2% HI FBS. • 6. Centrifuge tubes for 500×g for 5 min. • 7. Aspirate supernatant and wash cells with 200 uL of cold PBS. • 8. Centrifuge tubes for 500×g for 5 min. • 9. Aspirate supernatant and add 400 μL of cold extraction buffer (provided in the NAD assay kit) and vortex each tube for 10 seconds. • 10. Centrifuge samples at 13,000×g for 10 min to remove insoluble material. • 11. Use a small aliquot of extract to determine total protein concentration by BCA protein assay kit. • 12. Deproteinize samples by filtering them through a 10 kDa cut-off spin filter. Centrifuge at 13,000×g for 10 min. • 13. After cell lysate is filtered, load 25 uL of samples to 96 well plate for NAD assay. • 14. Add 25 uL of extraction buffer to each well with samples to dilute them 1:2. Add 50 uL of standards to appropriate wells. • 15. Set up master reaction mix of cycling buffer and NAD cycling enzyme mix. Add 100 uL of mix to each well and incubate for […]. • 16. Add 10 uL of developer into each well. • 17. Let plate incubate at room temperature for 1 hr. • 18. Stop the reaction by adding 10 uL of stop solution into each well and mix well. • 19. Measure absorbance at 450 nm using plate reader. • 20. Plot standard curve and normalize data to determine total NAD level.

SMILES | Average Total NAD (pmoles) Concentration from NAD Assay (NHDF cells; 3-Hour, Conc. 5 μM) [pmol] | Average Total NAD (pmoles) Concentration from NAD Assay (NHDF cells; 3-Hour, Conc. 10 μM) [pmol] | Average Total NAD (pmoles) Concentration from NAD Assay (NHDF cells; 3-Hour, Conc. 20 μM) [pmol] | Average Total NAD (pmoles) Concentration from NAD Assay (NHDF cells; 6-Hour, Conc. 5 μM) [pmol] | Average Total NAD (pmoles) Concentration from NAD Assay (NHDF cells; 6-Hour, Conc. 10 μM) [pmol] | Average Total NAD (pmoles) Concentration from NAD Assay (NHDF cells; 6-Hour, Conc. 20 μM) [pmol] | NAD+ level (HaCaT cells) [pmol/mg protein] | further results
O=C(O)c1ccc[n+]([C@@H]2O[C@H](COP(=O)(O)O)[C@@H](O)[C@H]2O)c1 [Sample 1, Nicotinic acid mononucleotide] | 38.1 | 55.0 | 59.0 | 72.6 | 77.8 | 79.4 | – | –
O=C(NCCCCCC[P+](c1ccccc1)(c1ccccc1)c1ccccc1)c1ccc[n+]([C@@H]2O[C@H](COP(=O)(O)O)[C@@H](O)[C@H]2O)c1 [Sample 2, 1-((2R,3R,4S,5R)-3,4-dihydroxy-5-((phosphonooxy)methyl)tetrahydrofuran-2-yl)-3-((6-(triphenylphosphonio)hexyl)carbamoyl)pyridin-1-ium] | 35.5 | 45.5 | 59.3 | 82.2 | 82.0 | 74.5 | – | increase in NAD levels compared with NMN (NHDF cells): greater increase in NAD levels than NMN
O=C(NCCCCCC[P+](c1ccccc1)(c1ccccc1)c1ccccc1)c1cccnc1 [Sample 5] | 41.6 | 57.5 | 60.0 | 68.2 | 77.0 | 76.0 | – | increase in NAD levels compared with NMN (NHDF cells): greater increase in NAD levels than NMN
NC(=O)c1ccc[n+]([C@@H]2O[C@H](COP(=O)([O-])O)[C@@H](O)[C@H]2O)c1 [NMN, nicotinamide mononucleotide, reference compound] | 48.5 | 63.5 | 63.1 | 50.9 | 54.9 | 58.6 | – | –
O=C(NCCNCCCCCC[P+](c1ccccc1)(c1ccccc1)c1ccccc1)c1cccnc1 | – | – | – | – | – | – | 378 | –
O=C(Oc1ccc(/C=C/c2cc(OC(=O)c3cccnc3)cc(OC(=O)c3cccnc3)c2)cc1)c1cccnc1 | – | – | – | – | – | – | 616 | –
[2H]c1nc([2H])c(C(=O)NCCCCCC[P+](c2ccccc2)(c2ccccc2)c2ccccc2)c([2H])c1[2H] | – | – | – | – | – | – | 435 | –
O=C(OCC[P+](c1ccccc1)(c1ccccc1)c1ccccc1)c1cccnc1 | – | – | – | – | – | – | <1 | –
CC(=O)OC[C@H]1O[C@@H]([n+]2cccc(C(=O)NCc3ccccc3)c2)[C@H](OC(C)=O)[C@@H]1OC(C)=O | – | – | – | – | – | – | 399 | –
O=C(OCCO)c1cccnc1 | – | – | – | – | – | – | 501 | –
NCCNC(=O)c1cccnc1 | – | – | – | – | – | – | 587 | –
O=C(OCCOCCC[P+](c1ccccc1)(c1ccccc1)c1ccccc1)c1cccnc1 | – | – | – | – | – | – | <1 | –
O=C(Nc1ccccc1C[P+](c1ccccc1)(c1ccccc1)c1ccccc1)c1cccnc1 | – | – | – | – | – | – | 666 | –
